Laboratory results from patent publication US10017506B2, “ATX modulating agents” (BIOGEN MA INC., priority 2012, dated 2018).

Each compound was assayed against T1, Human ATX protein (Homo sapiens, UniProt Q13822) (assay: ATX biochemical FRET assay with FS-3 substrate). Details: FRET substrate FS-3 2 μM, ATX 1.0 μg/mL, 30 minutes pre-incubation, 2 hours at room temperature; read-out: IC50.
T1 construct: made in house
From the text: ATX (Autotaxin) is a 125 KDa glycoprotein with lysophospholipase D (LPLD) activity that generates the bioactive lipid lysophosphatidic acid (LPA) from lysophosphatidylcholine (LPC). The ATX biochemical assay utilizes a FRET (fluorescence resonance energy transfer) technology platform. The fluorescence signal of FRET substrate FS-3 is quenched due to intra-molecular FRET of a fluorophore to a non-fluorescing quencher (Ferguson, C. G., et al., Org Lett. 2006 May 11; 8(10): 2023-2026, which is incorporated by reference in its entirety). ATX catalyzes the hydrolysis of the substrate which separates the dabsyl quencher from the fluorescein reporter, which becomes fluorescent. The reaction is monitored by a SpectraMax M5 (Molecular Devices, Sunnyvale, Calif.) with at excitation wavelength 485 nm and emission wavelength […].
Fatty acid free-BSA (Sigma A8806): 10 mg/mL in H2O, stored at 4° C.
2×ATX assay buffer: 100 mM Tris, 280 mM NaCl, 10 mM KCl, 2 mM CaCl2, 2 mM MgCl2, pH 7.4.
Human ATX protein: expressed and purified in house. Stored at −80° C.
Substrate FS-3 (Echelon, L-2000): 100 μg in 77.74 μL H2O (1 mM stock), stored at −20° C.
384-well flat bottom plates—Corning #3575.
Compound dilution—All compounds were provided at 10 mM in 100% DMSO. In the first well, 2 μL of 10 mM compound was added to 78 μL of DMSO (1:40 dilution). In subsequent wells 3-fold dilution (total 10 dilutions) were performed.
1×ATX assay buffer was made up with a final concentration of 1 mg/mL fatty acid free-BSA using 2×ATX assay buffer, 10 mg/ml fatty acid free-BSA and ddH2O.
ATX protein was diluted with 1×ATX assay buffer to a concentration of 1.32 μg/mL (1.32×). 38 μL was added per well to the assay plate. The final concentration of ATX in the reaction as 1.0 μg/mL.
2 μL per well of compounds was transferred to provide the desired concentration. The plate was centrifuged, then incubated at room temperature for 30 minutes on the shaker.
Then, 10 μL was added per well to the assay plate. […] The plate was centrifuged. The plate was kept shaking at room temperature for 2 hours. Because FS-3 substrate is light sensitive, plates were kept covered and protected from light.
Fluorescence was measured using SpectraMax M5 (excitation at 485 nm/emission at 538 nm, top read).

| IC50 [nM] | SMILES |
| --- | --- |
| ≤ 500 | CC[C@H]1CC[C@@H](Oc2ccc3ccc(CNC4CC(C(=O)O)C4(C)C)cc3c2C(F)(F)F)CC1 (stereo partly drawn) [Example 54, 3-(((7-((cis-4-ethylcyclohexyl)oxy)-8-(trifluoromethyl)naphthalen-2-yl)methyl)amino)-2,2-dimethylcyclobutanecarboxylic acid] |
| ≤ 500 | CCC(N[C@H]1C[C@@H](C(=O)O)C1(C)C)c1ccc2ccc(O[C@H]3CC[C@@H](C(F)(F)F)CC3)c(Cl)c2c1 (stereo partly drawn) [Example 32, (1R,3S)-3-((1-(8-chloro-7-((cis-4-(trifluoromethyl)cyclohexyl)oxy)naphthalen-2-yl)propyl)amino)-2,2-dimethylcyclobutanecarboxylic acid] |
| ≤ 250 | CC[C@H]1CC[C@@H](Oc2ccc3ccc([C@@H](C)N[C@H]4C[C@H](C(=O)O)C4(C)C)cc3c2C(F)(F)F)CC1 [Example 118c, (1S,3S)-3-(((R)-1-(7-((cis-4-ethylcyclohexyl)oxy)-8-(trifluoromethyl)naphthalen-2-yl)ethyl)amino)-2,2-dimethylcyclobutanecarboxylic acid] |
| ≤ 100 | CC[C@H]1CC[C@@H](Oc2ccc3ccc([C@H](C)N[C@H]4C[C@@H](C(=O)O)C4(C)C)cc3c2C(F)(F)F)CC1 [Example 118b, (1R,3S)-3-(((S)-1-(7-((cis-4-ethylcyclohexyl)oxy)-8-(trifluoromethyl)naphthalen-2-yl)ethyl)amino)-2,2-dimethylcyclobutanecarboxylic acid] |
| ≤ 500 | CC[C@H]1CC[C@@H](Oc2ccc3ccc([C@H](C)N[C@H]4C[C@H](C(=O)O)C4(C)C)cc3c2C(F)(F)F)CC1 [Example 118a, (1S,3S)-3-(((S)-1-(7-((cis-4-ethylcyclohexyl)oxy)-8-(trifluoromethyl)naphthalen-2-yl)ethyl)amino)-2,2-dimethylcyclobutanecarboxylic acid] |
| ≤ 500 | O=C(O)C1CCN(Cc2ccc3ccc(O[C@H]4CC[C@@H](C(F)(F)F)CC4)c(C(F)(F)F)c3c2)CC1 [Example 43, 1-((8-(trifluoromethyl)-7-((cis-4-(trifluoromethyl)cyclohexyl)oxy)naphthalen-2-yl)methy 1)piperidine-4-carboxylic acid] |
| ≤ 500 | CC[C@H]1CC[C@@H](Oc2ccc3ccc(CN4CCC(C(=O)O)CC4)cc3c2C(F)(F)F)CC1 [Example 50, 1-((7-((cis-4-ethylcyclohexyl)oxy)-8-(trifluoromethyl)naphthalen-2-yl)methyl)piperidine-4-carboxylic acid] |
| ≤ 100 | O=C(O)C[C@H]1CCCN(Cc2ccc3ccc(O[C@H]4CC[C@@H](C(F)(F)F)CC4)c(C(F)(F)F)c3c2)C1 [Example 7, 2-((R)-1-((8-(trifluoromethyl)-7-((cis-4-(trifluoromethyl)cyclohexyl)oxy)naphthalen-2-yl)methyl)piperidin-3-yl)acetic acid] |
| ≤ 250 | CC1(C)C(NCc2ccc3ccc(O[C@H]4CC[C@@H](C(F)(F)F)CC4)c(C(F)(F)F)c3c2)CC1C(=O)O (stereo partly drawn) [Example 8, 2,2-dimethyl-3-(((8-(trifluoromethyl)-7-((cis-4-(trifluoromethyl)cyclohexyl)oxy)-naphthalen-2-yl)methyl)amino)cyclobutanecarboxylic acid] |
| ≤ 250 | CCC(c1ccc2ccc(O[C@H]3CC[C@@H](C(F)(F)F)CC3)c(C(F)(F)F)c2c1)N1CCC(C(=O)O)CC1 (stereo partly drawn) [Example 45, 1-(1-(8-(trifluoromethyl)-7-((cis-4-(trifluoromethyl)cyclohexyl)oxy)naphthalene-2-yl)propyl)piperidine-4-carboxylic acid] |
| ≤ 100 | CCC(N[C@H]1CC[C@@H](C(=O)O)CC1)c1ccc2ccc(O[C@H]3CC[C@@H](C(F)(F)F)CC3)c(C(F)(F)F)c2c1 (stereo partly drawn) [Example 147, cis-4-((1-(8-(trifluoromethyl)-7-((cis-4-(trifluoromethyl)cyclohexyl)oxy)naphthalen-2-yl)propyl)amino)cyclohexanecarboxylic acid] |

More lines, now with the values behind:

| SMILES | IC50 [nM] |
| --- | --- |
| CC[C@H]1CC[C@@H](Oc2ccc3ccc(C(C)N4CCC(C(=O)O)CC4)cc3c2C(F)(F)F)CC1 (stereo partly drawn) [Example 57, 1-(1-(7-((cis-4-ethylcyclohexyl)oxy)-8-(trifluoromethyl)naphthalen-2-yl)ethyl)piperidine-4-carboxylic acid] | ≤ 100 |
| CC[C@H]1CC[C@@H](Oc2ccc3ccc(C(C)N4CCC[C@H](CC(=O)O)C4)cc3c2C(F)(F)F)CC1 (stereo partly drawn) [Example 58, 2-((3R)-1-(1-(7-((cis-4-ethylcyclohexyl)oxy)-8-(trifluoromethyl)naphthalen-2-yl)ethyl)piperidin-3-yl)acetic acid] | ≤ 250 |
| CC(c1ccc2ccc(O[C@H]3CC[C@@H](C)CC3)c(C(F)(F)F)c2c1)N1CCC(C(=O)O)CC1 (stereo partly drawn) [Example 80, 1-(1-(7-((cis-4-methylcyclohexyl)oxy)-8-(trifluoromethyl)naphthalen-2-yl)ethyl)piperidine-4-carboxylic acid] | ≤ 250 |
| CC[C@H]1CC[C@@H](Oc2ccc3ccc(C(C)N[C@H]4C[C@@H](C(=O)O)C4(C)C)cc3c2Cl)CC1 (stereo partly drawn) [Example 67, (1R,3S)-3-((1-(8-chloro-7-((cis-4-ethylcyclohexyl)oxy)naphthalen-2-yl)ethyl)amino)-2,2-dimethylcyclobutanecarboxylic acid] | ≤ 250 |

Same assay, conditions: IC50, FRET substrate FS-3 2 μM, ATX 1.0 μg/mL, 30 minutes pre-incubation, 2 hours at room temperature

| SMILES | IC50 [nM] |
| --- | --- |
| CC[C@H]1CC[C@@H](Oc2ccc3ccc(CN4C5CCCC4CC(C(=O)O)C5)cc3c2C(F)(F)F)CC1 (stereo partly drawn) [Example 52, 9-((7-((cis-4-ethylcyclohexyl)oxy)-8-(trifluoromethyl)naphthalen-2-yl)methyl)-9-azabicyclo[3.3.1]nonane-3-carboxylic acid] | ≤ 100 |
| C[C@H]1CC[C@@H](Oc2ccc3ccc(CN4C5CCC4CC(C(=O)O)C5)cc3c2C#N)CC1 (stereo partly drawn) [Example 96, 8-((8-cyano-7-((cis-4-methylcyclohexyl)oxy)naphthalen-2-yl)methyl)-8-azabicyclo[3.2.1]octane-3-carboxylic acid] | ≤ 250 |
| CC[C@H]1CC[C@@H](Oc2ccc3ccc(CN4C5CCCC4CC(C(=O)O)C5)cc3c2Cl)CC1 (relative stereo) [Example 49, 9-((8-chloro-7-((cis-4-ethylcyclohexyl)oxy)naphthalen-2-yl)methyl)-9-azabicyclo[3.3.1]nonane-3-carboxylic acid] | ≤ 100 |
| CC(c1ccc2ccc(O[C@H]3CC[C@@H](C)CC3)c(C#N)c2c1)N1C2CCCC1CC(C(=O)O)C2 (stereo partly drawn) [Example 102, 9-(1-(8-cyano-7-((cis-4-methylcyclohexyl)oxy)naphthalen-2-yl)ethyl)-9-azabicyclo[3.3.1]nonane-3-carboxylic acid] | ≤ 100 |
| C[C@H]1CC[C@@H](Oc2ccc3ccc(CN4C5CCC4CC(C(=O)O)C5)cc3c2Cl)CC1 (stereo partly drawn) [Example 83, 8-((8-chloro-7-((cis-4-methylcyclohexyl)oxy)naphthalen-2-yl)methyl)-8-azabicyclo[3.2.1]octane-3-carboxylic acid] | ≤ 250 |
| CC[C@H]1CC[C@@H](Oc2ccc3ccc(C(C)N4C5CCC4CC(C(=O)O)C5)cc3c2C(F)F)CC1 (stereo partly drawn) [Example 63, 8-(1-(8-(difluoromethyl)-7-((cis-4-ethylcyclohexyl)oxy)naphthalen-2-yl)ethyl)-8-azabicyclo[3.2.1]octane-3-carboxylic acid] | ≤ 100 |
| N#Cc1c(O[C@H]2CC[C@@H](C(F)(F)F)CC2)ccc2ccc(CN3C4CCCC3CC(C(=O)O)C4)cc12 (stereo partly drawn) [Example 35, 9-((8-cyano-7-((cis-4-(trifluoromethyl)cyclohexyl)oxy)naphthalen-2-yl)methyl)-9-azabicyclo[3.3.1]nonane-3-carboxylic acid] | ≤ 250 |
| CC[C@H]1CC[C@@H](Oc2ccc3ccc(C(C)N4C5CCCC4CC(C(=O)O)C5)cc3c2C(F)(F)F)CC1 (stereo partly drawn) [Example 56, 9-(1-(7-((cis-4-ethylcyclohexyl)oxy)-8-(trifluoromethyl)naphthalen-2-yl)ethyl)-9-azabicyclo[3.3.1]nonane-3-carboxylic acid] | ≤ 100 |
| CCC(c1ccc2ccc(O[C@H]3CC[C@@H](C)CC3)c(Cl)c2c1)N1C2CCC1CC(C(=O)O)C2 (stereo partly drawn) [Example 95, 8-(1-(8-chloro-7-((cis-4-methylcyclohexyl)oxy)naphthalen-2-yl)propyl)-8-azabicyclo[3.2.1]octane-3-carboxylic acid] | ≤ 500 |
| CC[C@H]1CC[C@@H](Oc2ccc3ccc(CN4C5CCC4CC(C(=O)O)C5)cc3c2C#N)CC1 (stereo partly drawn) [Example 70, 8-((8-cyano-7-((cis-4-ethylcyclohexyl)oxy)naphthalen-2-yl)methyl)-8-azabicyclo[3.2.1]octane-3-carboxylic acid] | ≤ 100 |
